Assay results from patent US20260258035A1, “FIVE-MEMBERED AND SIX-MEMBERED NITROGEN-CONTAINING COMPOUND, AND INTERMEDIATE, PREPARATION METHOD AND USE THEREOF” (HANGZHOU SYNRX THERAPEUTICS BIOMEDICAL TECHNOLOGY CO., LTD., priority 2022, published 2026).
Like-named read-outs stand apart in the source and are kept apart here.

Experiments:
PARG = PARG (Homo sapiens, UniProt Q86W56); experiment: Biochemical assay (PARG, TFMU-ADPr substrate); details: PARG, TFMU-ADPr substrate
HCC1806 = experiment: Cell viability assay (CellTiter-Glo); format: cell-based, Human; details: read-out: IC50 (nM) in cell viability assay
[1] = Homo sapiens, HCC1806, 168 h, HCC1806, 7 days, CellTiter-Glo

PARG, sequence (Q86W56 whole entry): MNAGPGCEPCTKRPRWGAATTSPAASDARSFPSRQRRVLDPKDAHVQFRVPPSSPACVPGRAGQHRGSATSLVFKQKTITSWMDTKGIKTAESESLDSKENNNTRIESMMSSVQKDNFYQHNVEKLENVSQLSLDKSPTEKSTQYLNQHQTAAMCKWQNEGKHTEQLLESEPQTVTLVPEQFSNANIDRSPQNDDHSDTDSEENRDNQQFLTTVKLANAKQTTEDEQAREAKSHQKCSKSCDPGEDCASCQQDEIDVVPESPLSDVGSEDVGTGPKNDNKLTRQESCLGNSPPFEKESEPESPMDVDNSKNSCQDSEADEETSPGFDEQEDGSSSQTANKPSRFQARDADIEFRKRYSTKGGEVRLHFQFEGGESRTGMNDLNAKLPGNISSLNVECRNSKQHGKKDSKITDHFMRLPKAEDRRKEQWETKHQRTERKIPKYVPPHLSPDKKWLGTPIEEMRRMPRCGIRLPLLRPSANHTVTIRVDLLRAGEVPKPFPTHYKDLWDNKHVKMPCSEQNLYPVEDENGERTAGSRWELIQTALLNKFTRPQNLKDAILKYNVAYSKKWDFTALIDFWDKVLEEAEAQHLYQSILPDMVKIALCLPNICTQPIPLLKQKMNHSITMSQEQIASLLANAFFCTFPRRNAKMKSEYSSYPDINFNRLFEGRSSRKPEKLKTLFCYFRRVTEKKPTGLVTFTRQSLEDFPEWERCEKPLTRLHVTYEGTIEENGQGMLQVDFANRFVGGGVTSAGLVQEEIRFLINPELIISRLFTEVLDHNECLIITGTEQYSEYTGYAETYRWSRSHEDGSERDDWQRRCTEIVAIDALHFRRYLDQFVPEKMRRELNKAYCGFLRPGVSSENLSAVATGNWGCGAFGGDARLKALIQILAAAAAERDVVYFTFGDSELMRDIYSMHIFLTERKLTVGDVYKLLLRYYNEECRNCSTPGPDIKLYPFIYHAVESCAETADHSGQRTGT

IC50 (PARG) [nM] | IC50 (HCC1806; [1]) [nM] | Compound | IC50 (HCC1806; Homo sapiens, HCC1806, 168 h) [nM] | IC50 (HCC1806; HCC1806, 7 days, CellTiter-Glo) [nM]
6.55 | 828 | CC1(NS(=O)(=O)c2cc(N3CCN(C(=O)C4(OCC(=O)O)CC4)CC3)c3cnc(-c4nnc(C(F)F)s4)n3c2)CC1 [Example 382, 2-(1-(4-(3-(5-(difluoromethyl)-1,3,4-thiadiazol-2-yl)-6-(N-(1-methylcyclopropyl)sulfamoyl)imidazo[1,5-a]pyridin-8-yl)piperazine-1-carbonyl)cyclopropoxy)acetic acid] |  | 
0.25 | 14.8 | CC1(NS(=O)(=O)c2cc(N3CCN(C(=O)C4(OCCO)CC4)CC3)c3cnc(-c4nnc(C(F)(F)F)s4)n3c2)CC1 [Example 383, 8-(4-(1-(2-hydroxyethoxy)cyclopropane-1-carbonyl)piperazin-1-yl)-N-(1-methylcyclopropyl)-3-(5-(trifluoromethyl)-1,3,4-thiadiazol-2-yl)imidazo[1,5-a]pyridine-6-sulfonamide] |  | 
< 0.15 | 17.6 | CN(C)CCOC1(C(=O)N2CCN(c3cc(S(=O)(=O)NC4(C)CC4)cn4c(-c5nnc(C(F)(F)F)s5)ncc34)CC2)CC1 [Example 384, 8-(4-(1-(2-(dimethylamino)ethoxy)cyclopropane-1-carbonyl)piperazin-1-yl)-N-(1-methylcyclopropyl)-3-(5-(trifluoromethyl)-1,3,4-thiadiazol-2-yl)imidazo[1,5-a]pyridine-6-sulfonamide] |  | 
263 | 7880 | C[C@@H]1CN(c2cc(S(=O)(=O)NC3CC3)cn3c(-c4nnc(C(F)(F)F)s4)nnc23)CCN1C(=O)C1(C)CC1 [Example 386, (R)—N-cyclopropyl-8-(3-methyl-4-(1-methylcyclopropane-1-carbonyl)piperazin-1-yl)-3-(5-(trifluoromethyl)-1,3,4-thiadiazol-2-yl)-[1,2,4]triazolo[4,3-a]pyridine-6-sulfonamide] |  | 
38 | 800 | CC(C)C(=O)N1CCN(c2cc(S(=O)(=O)NC3CC3)cn3c(-c4nnc(C(F)(F)F)s4)nnc23)CC1 [Example 387, N-cyclopropyl-8-(4-isobutyrylpiperazin-1-yl)-3-(5-(trifluoromethyl)-1,3,4-thiadiazol-2-yl)-[1,2,4]triazolo[4,3-a]pyridine-6-sulfonamide] |  | 
10 | 320 | CC(C)C(=O)N1CCN(c2cc(S(=O)(=O)NC3(C)CC3)cn3c(-c4nnc(C(F)(F)F)s4)nnc23)CC1 [Example 388, 8-(4-isobutyrylpiperazin-1-yl)-N-(1-methylcyclopropyl)-3-(5-(trifluoromethyl)-1,3,4-thiadiazol-2-yl)-[1,2,4]triazolo[4,3-a]pyridine-6-sulfonamide] |  | 
20 | 2130 | CC(C)C(=O)N1CC2(C=C(c3nc(-c4nnc(C(F)(F)F)s4)n4cc(S(=O)(=O)NC5(C#N)CC5)ccc34)CC2)C1 [Example 389, N-(1-cyanocyclopropyl)-1-(2-isobutyryl-2-azaspiro[3.4]oct-5-en-6-yl)-3-(5-(trifluoromethyl)-1,3,4-thiadiazol-2-yl)imidazo[1,5-a]pyridine-6-sulfonamide] |  | 
28.2 | 793 | CC(C)C(=O)N1CCN(c2c(F)c(S(=O)(=O)NC3(C#N)CC3)cn3c(-c4nnc(C(F)(F)F)s4)ncc23)CC1 [Example 390, N-(1-cyanocyclopropyl)-7-fluoro-8-(4-isobutyrylpiperazin-1-yl)-3-(5-(trifluoromethyl)-1,3,4-thiadiazol-2-yl)imidazo[1,5-a]pyridine-6-sulfonamide] |  | 
5.01 | 177 | [2H]C([2H])([2H])OCC1CN(c2cc(S(=O)(=O)NC3(C)COC3)cn3c(-c4nnc(C(F)F)s4)nc(Cl)c23)CCN1 (centres unmarked) [Example 391, 1-chloro-3-(5-(difluoromethyl)-1,3,4-thiadiazol-2-yl)-8-(3-((methoxy-d3)methyl)piperazin-1-yl)-N-(3-methyloxetan-3-yl)imidazo[1,5-a]pyridine-6-sulfonamide] |  | 
11 | 132 | [2H]C([2H])([2H])OCC1CN(c2cc(S(=O)(=O)NC3(C)COC3)cn3c(-c4nnc(C(F)F)s4)ncc23)CCN1 (centres unmarked) [Example 392, 3-(5-(difluoromethyl)-1,3,4-thiadiazol-2-yl)-8-(3-((methoxy-d3)methyl)piperazin-1-yl)-N-(3-methyloxetan-3-yl)imidazo[1,5-a]pyridine-6-sulfonamide] |  | 
5.75 | 222 | CN1CC2CN(c3cc(S(=O)(=O)NC4(C)COC4)cn4c(-c5nnc(C(F)(F)F)s5)ncc34)CCN2C(=O)C12CC2 (centres unmarked) [Example 393, 8-(2′-methyl-4′-oxohexahydro-4′H,8′H-spiro[cyclopropane-1,3′-pyrazino[1,2-a]pyrazin]-8′-yl)-N-(3-methyloxetan-3-yl)-3-(5-(trifluoromethyl)-1,3,4-thiadiazol-2-yl)imidazo[1,5-a]pyridine-6-sulfonamide] |  | 
6.56 | 1700 | CC1(NS(=O)(=O)c2cc(N3CCN4C(=O)NCC4C3)c3cnc(-c4nnc(C(F)(F)F)s4)n3c2)COC1 (centres unmarked) [Example 394, N-(3-methyloxetan-3-yl)-8-(3-oxohexahydroimidazo[1,5-a]pyrazin-7(1H)-yl)-3-(5-(trifluoromethyl)-1,3,4-thiadiazol-2-yl)imidazo[1,5-a]pyridine-6-sulfonamide] |  | 
2.08 | 36.8 | C[C@H]1CN(c2cc(S(=O)(=O)NC3(C)COC3)cn3c(-c4nnc(C(F)F)s4)ncc23)C[C@H](CO)O1 [Example 396, 3-(5-(difluoromethyl)-1,3,4-thiadiazol-2-yl)-8-((2R,6S)-2-(hydroxymethyl)-6-methylmorpholino)-N-(3-methyloxetan-3-yl)imidazo[1,5-a]pyridine-6-sulfonamide] |  | 
27.5 | 992 | C[C@H]1CN(c2cc(S(=O)(=O)NC3(C)COC3)cn3c(-c4nnc(C(F)F)s4)ncc23)C[C@H](CN(C)C)O1 [Example 398, 3-(5-(difluoromethyl)-1,3,4-thiadiazol-2-yl)-8-((2S,6S)-2-((dimethylamino)methyl)-6-methylmorpholino)-N-(3-methyloxetan-3-yl)imidazo[1,5-a]pyridine-6-sulfonamide] |  | 
12.6 | 755 | COC1(C(=O)N2[C@@H](C)CN(c3cc(S(=O)(=O)NC4(C)COC4)cn4c(-c5nnc(C(F)F)s5)ncc34)C[C@@H]2C)CC1 [Example 399, 3-(5-(difluoromethyl)-1,3,4-thiadiazol-2-yl)-8-((3S,5S)-4-(1-methoxycyclopropane-1-carbonyl)-3,5-dimethylpiperazin-1-yl)-N-(3-methyloxetan-3-yl)imidazo[1,5-a]pyridine-6-sulfonamide] |  | 
6.31 | 267 | C[C@H]1CN(c2cc(S(=O)(=O)NC3(C)COC3)cn3c(-c4nnc(C(F)F)s4)ncc23)C[C@H](C)N1C [Example 400, 3-(5-(difluoromethyl)-1,3,4-thiadiazol-2-yl)-N-(3-methyloxetan-3-yl)-8-((3S,5S)-3,4,5-trimethylpiperazin-1-yl)imidazo[1,5-a]pyridine-6-sulfonamide] |  | 
158 | 2800 | CC(=O)N1[C@@H](C)CN(c2cc(S(=O)(=O)NC3(C)COC3)cn3c(-c4nnc(C(F)F)s4)ncc23)C[C@@H]1C [Example 401, 8-((3S,5S)-4-acetyl-3,5-dimethylpiperazin-1-yl)-3-(5-(difluoromethyl)-1,3,4-thiadiazol-2-yl)-N-(3-methyloxetan-3-yl)imidazo[1,5-a]pyridine-6-sulfonamide] |  | 
20.9 | 1840 | C[C@H]1CN(c2cc(S(=O)(=O)NC3(C)COC3)cn3c(-c4nnc(C(F)F)s4)nc(Cl)c23)C[C@H](CO)N1 [Example 402, 1-chloro-3-(5-(difluoromethyl)-1,3,4-thiadiazol-2-yl)-8-((3R,5S)-3-(hydroxymethyl)-5-methylpiperazin-1-yl)-N-(3-methyloxetan-3-yl)imidazo[1,5-a]pyridine-6-sulfonamide] |  | 
21.9 | 458 | COC[C@H]1CN(c2cc(S(=O)(=O)NC3(C)COC3)cn3c(-c4nnc(C(F)F)s4)nc(Cl)c23)C[C@H](C)N1 [Example 403, 1-chloro-3-(5-(difluoromethyl)-1,3,4-thiadiazol-2-yl)-8-((3R,5S)-3-(methoxymethyl)-5-methylpiperazin-1-yl)-N-(3-methyloxetan-3-yl)imidazo[1,5-a]pyridine-6-sulfonamide] |  | 
1.09 | 27 | COC[C@H]1CN(c2cc(S(=O)(=O)NC3(C)COC3)cn3c(-c4nnc(C(F)F)s4)ncc23)C[C@H](C)N1 [Example 404, 3-(5-(difluoromethyl)-1,3,4-thiadiazol-2-yl)-8-((3R,5S)-3-(methoxymethyl)-5-methylpiperazin-1-yl)-N-(3-methyloxetan-3-yl)imidazo[1,5-a]pyridine-6-sulfonamide] |  | 

Compound | IC50 (PARG) [nM] | IC50 (HCC1806; [1]) [nM] | IC50 (HCC1806; Homo sapiens, HCC1806, 168 h) [nM] | IC50 (HCC1806; HCC1806, 7 days, CellTiter-Glo) [nM]
CN(C)CCCOC1(C(=O)N2CCN(c3cc(S(=O)(=O)NC4(C)CC4)cn4c(-c5nnc(C(F)(F)F)s5)ncc34)CC2)CC1 [Example 385, 8-(4-(1-(3-(dimethylamino)propoxy)cyclopropane-1-carbonyl)piperazin-1-yl)-N-(1-methylcyclopropyl)-3-(5-(trifluoromethyl)-1,3,4-thiadiazol-2-yl)imidazo[1,5-a]pyridine-6-sulfonamide] | 0.48 |  | 40 | 
N-(1-cyanocyclopropyl)-8-(4-(oxetane-3-carbonyl)piperazin-1-yl)-3-(5-(trifluoromethyl)-1,3,4-thiadiazol-2-yl)imidazo[1,5-a]pyridine-6-sulfonamide [Example 294] | 12 |  |  | 110
